Test results reported in patent US5534508A, “Cephem compounds and antimicrobial agents” (Katayama Seiyakusyo Co., Ltd., priority 1993, dated 1996).
≈ marks a conversion by molar mass, not a printed value.

How the values were obtained:
Type in all cases: cell-based
A. faecalis ATCC 3750 = test: MIC against standard strains (Table 1), A. faecalis ATCC 3750; settings: Alcaligenes faecalis, ATCC3750, Muller-Hinton agar, overnight 37° C., read-out: MIC (minimum growth inhibitory concentration)
Protocol: (§1) The minimum growth inhibitory concentration (MIC, μg/ml) of the compounds for each of the 25 standard laboratory strains (standard strains) shown in Table 1 was determined in accordance with the standard method of the Japan Chemotherapical Society (Chemotherapy, 29, 76-79 (1981) under "Re-revision of the measuring methods of minimum growth inhibitory concentration (MIC)").
(§2) That is, by using each test strain cultured overnight at 37° C. in a Muller-Hinton broth, there was prepared a bacterial solution with a cell density of 1×10^6 CFU/ml in the same broth. The bacterial solution was inoculated into the Muller-Hinton agar media each containing respectively one test agent (i.e., compound) and, after overnight incubation at 37° C., the minimum concentration that inhibited growth of the bacteria was determined and expressed as MIC.
(§3) Staphylococcus aureus 167 and Staphylococcus aureus 195 used in the test were MRSA. CTM (cefotiam) and FMOX (flomoxef) were used as the control agents.

S. aureus 195 = test: MIC against standard strains (Table 1), S. aureus 195 (MRSA); settings: Staphylococcus aureus, Muller-Hinton agar, overnight 37° C., read-out: MIC (minimum growth inhibitory concentration)
Protocol: as §1, §2, §3

E. cloacae ATCC 13407 = test: MIC against standard strains (Table 1), E. cloacae ATCC 13407; settings: Enterobacter cloacae, ATCC13407, Muller-Hinton agar, overnight 37° C., read-out: MIC (minimum growth inhibitory concentration)
Protocol: as §1, §2, §3

S. aureus 167 = test: MIC against standard strains (Table 1), S. aureus 167 (MRSA); settings: Staphylococcus aureus, Muller-Hinton agar, overnight 37° C., read-out: MIC (minimum growth inhibitory concentration)
Protocol: as §1, §2, §3

A. calcoaceticos T59 = test: MIC against standard strains (Table 1), A. calcoaceticos T59; settings: Muller-Hinton agar, overnight 37° C., read-out: MIC (minimum growth inhibitory concentration)
Protocol: as §1, §2, §3

E. coli CSH2(RK1) = test: MIC against standard strains (Table 1), E. coli CSH2(RK1); settings: Escherichia coli, read-out: MIC (minimum growth inhibitory concentration)
Protocol: as §1, §2, §3

S. epidemidis IAM 1296 = test: MIC against standard strains (Table 1), S. epidemidis IAM 1296; settings: Muller-Hinton agar, overnight 37° C., read-out: MIC (minimum growth inhibitory concentration)
Protocol: as §1, §2, §3

S. marcescens No. 16-2 = test: MIC against standard strains (Table 1), S. marcescens No. 16-2; settings: Serratia marcescens, NO.162, Muller-Hinton agar, overnight 37° C., read-out: MIC (minimum growth inhibitory concentration)
Protocol: as §1, §2, §3

P. vulugaris OX-19 = test: MIC against standard strains (Table 1), P. vulugaris OX-19; settings: Muller-Hinton agar, overnight 37° C., read-out: MIC (minimum growth inhibitory concentration)
Protocol: as §1, §2, §3

E. coli CSH2(RE45) = test: MIC against standard strains (Table 1), E. coli CSH2(RE45); settings: Escherichia coli, read-out: MIC (minimum growth inhibitory concentration)
Protocol: as §1, §2, §3

C. freundii ATCC 8090 = test: MIC against standard strains (Table 1), C. freundii ATCC 8090; settings: Citrobacter freundii, ATCC8090, Muller-Hinton agar, overnight 37° C., read-out: MIC (minimum growth inhibitory concentration)
Protocol: as §1, §2, §3

K. pneuminiae No. 42 = test: MIC against standard strains (Table 1), K. pneuminiae No. 42; settings: Muller-Hinton agar, overnight 37° C., read-out: MIC (minimum growth inhibitory concentration)
Protocol: as §1, §2, §3

E. coli JC-2 = test: MIC against standard strains (Table 1), E. coli JC-2; settings: Escherichia coli, JC2, Muller-Hinton agar, overnight 37° C., read-out: MIC (minimum growth inhibitory concentration)
Protocol: as §1, §2, §3

S. aureus Smith = test: MIC against standard strains (Table 1), S. aureus Smith; settings: Staphylococcus aureus, Muller-Hinton agar, overnight 37° C., read-out: MIC (minimum growth inhibitory concentration)
Protocol: as §1, §2, §3

clinically isolated MRSA = test: Antibacterial potency against clinically isolated MRSA (47 strains); settings: Staphylococcus aureus; for MIC50: concentration inhibiting growth of 50% of 47 clinically isolated MRSA strains; for MIC90: concentration inhibiting growth of 90% of 47 clinically isolated MRSA strains
Protocol: A test on the antibacterial potency against clinically isolated MRSA was conducted in the following way.
That is, using 47 strains of clinically isolated MRSA, MIC was determined for each of the test strains in accordance with the standard method of the Japan Chemotherapical Society as in Test Example 1, and the minimum growth inhibitory concentration which inhibited growth of 50% of the strains tested was expressed as MIC50 (μg/ml), and the minimum growth inhibitory concentration which inhibited growth of 90% of the strains tested was expressed as MIC90 (μg/ml).
In this test, FMOX was used as the control agent.

P. mirabilis IFO 3849 = test: MIC against standard strains (Table 1), P. mirabilis IFO 3849; settings: Proteus mirabilis, IFO3849, Muller-Hinton agar, overnight 37° C., read-out: MIC (minimum growth inhibitory concentration)
Protocol: as §1, §2, §3

S. aureus 209p JC-1 = test: MIC against standard strains (Table 1), S. aureus 209p JC-1; settings: Staphylococcus aureus, Muller-Hinton agar, overnight 37° C., read-out: MIC (minimum growth inhibitory concentration)
Protocol: as §1, §2, §3

M. luteus ATCC 9341 = test: MIC against standard strains (Table 1), M. luteus ATCC 9341; settings: Micrococcus luteus, ATCC9341, Muller-Hinton agar, overnight 37° C., read-out: MIC (minimum growth inhibitory concentration)
Protocol: as §1, §2, §3

P. aeruginosa NCTC 10490 = test: MIC against standard strains (Table 1), P. aeruginosa NCTC 10490; settings: Pseudomonas aeruginosa, NCTC10490, Muller-Hinton agar, overnight 37° C., read-out: MIC (minimum growth inhibitory concentration)
Protocol: as §1, §2, §3

B. subtilis ATCC 6633 = test: MIC against standard strains (Table 1), B. subtilis ATCC 6633; settings: Bacillus subtilis, ATCC6633, Muller-Hinton agar, overnight 37° C., read-out: MIC (minimum growth inhibitory concentration)
Protocol: as §1, §2, §3

K. pneuminiae IFO 3317 = test: MIC against standard strains (Table 1), K. pneuminiae IFO 3317; settings: Muller-Hinton agar, overnight 37° C., read-out: MIC (minimum growth inhibitory concentration)
Protocol: as §1, §2, §3

M. morganii IFO 3848 = test: MIC against standard strains (Table 1), M. morganii IFO 3848; settings: Morganella morganii, IFO3848, Muller-Hinton agar, overnight 37° C., read-out: MIC (minimum growth inhibitory concentration)
Protocol: as §1, §2, §3

S. marcescens IAM 1184 = test: MIC against standard strains (Table 1), S. marcescens IAM 1184; settings: Serratia marcescens, IAM1184, Muller-Hinton agar, overnight 37° C., read-out: MIC (minimum growth inhibitory concentration)
Protocol: as §1, §2, §3

E. cloacae Nek39 = test: MIC against standard strains (Table 1), E. cloacae Nek39; settings: Enterobacter cloacae, Muller-Hinton agar, overnight 37° C., read-out: MIC (minimum growth inhibitory concentration)
Protocol: as §1, §2, §3

P. aeruginosa AKR17 = test: MIC against standard strains (Table 1), P. aeruginosa AKR17; settings: Pseudomonas aeruginosa, Muller-Hinton agar, overnight 37° C., read-out: MIC (minimum growth inhibitory concentration)
Protocol: as §1, §2, §3

P. cepacia CN 9113 = test: MIC against standard strains (Table 1), P. cepacia CN 9113; settings: Burkholderia cepacia, CN9113, Muller-Hinton agar, overnight 37° C., read-out: MIC (minimum growth inhibitory concentration)
Protocol: as §1, §2, §3

| SMILES | MIC (A. faecalis ATCC 3750) | MIC (S. aureus 195) | MIC (E. cloacae ATCC 13407) | MIC (S. aureus 167) | MIC (A. calcoaceticos T59) | MIC (E. coli CSH2(RK1)) | MIC (S. epidemidis IAM 1296) | MIC (S. marcescens No. 16-2) | MIC (P. vulugaris OX-19) | MIC (E. coli CSH2(RE45)) | MIC (C. freundii ATCC 8090) | MIC (K. pneuminiae No. 42) | MIC (E. coli JC-2) | MIC (S. aureus Smith) | MIC50 (clinically isolated MRSA) | MIC90 (clinically isolated MRSA) | MIC (P. mirabilis IFO 3849) | MIC (S. aureus 209p JC-1) | MIC (M. luteus ATCC 9341) | MIC (P. aeruginosa NCTC 10490) | also measured |
| --- | --- | --- | --- | --- | --- | --- | --- | --- | --- | --- | --- | --- | --- | --- | --- | --- | --- | --- | --- | --- | --- |
| NC(=O)Nc1ccc[n+](C/C=C/C2=C(C(=O)[O-])N3C(=O)[C@@H](NC(=O)/C(=N\O)c4csc(N)n4)[C@H]3SC2)c1 [Compound 13, 7β-[2-(2-aminothiazol-4-yl)-2-syn-hydroxyiminoacetamido]-3-[(E)-3-(3-ureidopyridinio) -1-propenyl]-3-cephem-4-carboxylate] | 0.78 µg/mL (≈ 1.43 µM) | 1.56 µg/mL (≈ 2.86 µM) | 0.1 µg/mL (≈ 0.184 µM) | 12.5 µg/mL (≈ 23 µM) | 3.13 µg/mL (≈ 5.75 µM) | 0.05 µg/mL (≈ 0.0918 µM) | 0.025 µg/mL (≈ 0.0459 µM) | 6.25 µg/mL (≈ 11.5 µM) | 0.05 µg/mL (≈ 0.0918 µM) | 0.05 µg/mL (≈ 0.0918 µM) | 0.025 µg/mL (≈ 0.0459 µM) | 0.05 µg/mL (≈ 0.0918 µM) | 0.025 µg/mL (≈ 0.0459 µM) | 0.2 µg/mL (≈ 0.367 µM) | 0.83 µg/mL (≈ 1.52 µM) | 5.08 µg/mL (≈ 9.33 µM) | 0.05 µg/mL (≈ 0.0918 µM) | 0.1 µg/mL (≈ 0.184 µM) | 0.05 µg/mL (≈ 0.0918 µM) | 1.56 µg/mL (≈ 2.86 µM) | MIC (B. subtilis ATCC 6633): 0.2 µg/mL (≈ 0.367 µM); MIC (K. pneuminiae IFO 3317): 0.025 µg/mL (≈ 0.0459 µM); MIC (M. morganii IFO 3848): 0.025 µg/mL (≈ 0.0459 µM); MIC (S. marcescens IAM 1184): 0.05 µg/mL (≈ 0.0918 µM); MIC (E. cloacae Nek39): 6.25 µg/mL (≈ 11.5 µM); MIC (P. aeruginosa AKR17): > 100 µg/mL; MIC (P. cepacia CN 9113): > 100 µg/mL |
| NC(=O)c1ccc[n+](C/C=C/C2=C(C(=O)[O-])N3C(=O)[C@@H](NC(=O)/C(=N\O)c4csc(N)n4)[C@H]3SC2)c1 [Compound 18, 7β-[2-(2-aminothiazol-4-yl)-2-syn-hydroxyiminoacetamido]-3-[(E)-3-(3-carbamoylpyridinio)-1-propenyl]-3-cephem-4-carboxylate] | 0.78 µg/mL (≈ 1.47 µM) | 3.13 µg/mL (≈ 5.91 µM) | 0.1 µg/mL (≈ 0.189 µM) | 50 µg/mL (≈ 94.4 µM) | 3.13 µg/mL (≈ 5.91 µM) | 0.1 µg/mL (≈ 0.189 µM) | 0.05 µg/mL (≈ 0.0944 µM) | 12.5 µg/mL (≈ 23.6 µM) | 0.1 µg/mL (≈ 0.189 µM) | 0.05 µg/mL (≈ 0.0944 µM) | 0.05 µg/mL (≈ 0.0944 µM) | 0.1 µg/mL (≈ 0.189 µM) | 0.05 µg/mL (≈ 0.0944 µM) | 0.1 µg/mL (≈ 0.189 µM) | 2.63 µg/mL (≈ 4.97 µM) | 22.2 µg/mL (≈ 41.9 µM) | 0.1 µg/mL (≈ 0.189 µM) | 0.1 µg/mL (≈ 0.189 µM) | 0.05 µg/mL (≈ 0.0944 µM) | 1.56 µg/mL (≈ 2.95 µM) | MIC (B. subtilis ATCC 6633): 0.1 µg/mL (≈ 0.189 µM); MIC (K. pneuminiae IFO 3317): 0.05 µg/mL (≈ 0.0944 µM); MIC (M. morganii IFO 3848): 0.05 µg/mL (≈ 0.0944 µM); MIC (S. marcescens IAM 1184): 0.05 µg/mL (≈ 0.0944 µM); MIC (E. cloacae Nek39): 6.25 µg/mL (≈ 11.8 µM); MIC (P. aeruginosa AKR17): > 100 µg/mL; MIC (P. cepacia CN 9113): > 100 µg/mL |
